Experimental data taken from patent publication US11833156B2, “Heterocyclic compounds as pad inhibitors” (JUBILANT EPIPAD LLC, priority 2017, dated 2023).
pIC50: −log10 of the molar value.

Target: PAD4 enzyme (Homo sapiens (Human), UniProt Q9UM07)
Assay: Ammonia Release Biochemical Assay (citrullination detected via ammonia release)
Settings: PAD4 120 nM, substrate BAEE, 60-min preincubation, read-out: NH3 release
Procedure: Ammonia Release Biochemical Assay
Citrullination assay was detected via ammonia release. PAD4 enzyme was diluted to 120 nM in assay buffer (100 mM HEPES, 50 mM NaCl, 2 mM DDT, 0.6 mg/mL BSA, pH 7.4) added to wells containing various concentration of compound or DMSO vehicle (1% final) in black 384 well plate. Following a 60-min preincubation at room temperature, the reaction was initiated by the addition of substrate (1.5 mM BAEE in 200 mM HEPES, 50 mM NaCl, 350 uM CaCl2, 2 mM, pH 7.4). The reaction was stopped after 60 min by addition of stop/detection buffer containing 50 mM EDTA, 2.6 mM of o-phthaladehyde and 2.6 mM DTT. Assay was incubated at room temperature for 90 min before measuring fluorescence's (λex 405/λem 460 nm) on Tecan reader. IC50 was calculated using XL-fit software model 205. (Ref: Nat Chem Biol. 2015 March; 11(3):189-91).

Sequence of PAD4 enzyme (Q9UM07 whole entry): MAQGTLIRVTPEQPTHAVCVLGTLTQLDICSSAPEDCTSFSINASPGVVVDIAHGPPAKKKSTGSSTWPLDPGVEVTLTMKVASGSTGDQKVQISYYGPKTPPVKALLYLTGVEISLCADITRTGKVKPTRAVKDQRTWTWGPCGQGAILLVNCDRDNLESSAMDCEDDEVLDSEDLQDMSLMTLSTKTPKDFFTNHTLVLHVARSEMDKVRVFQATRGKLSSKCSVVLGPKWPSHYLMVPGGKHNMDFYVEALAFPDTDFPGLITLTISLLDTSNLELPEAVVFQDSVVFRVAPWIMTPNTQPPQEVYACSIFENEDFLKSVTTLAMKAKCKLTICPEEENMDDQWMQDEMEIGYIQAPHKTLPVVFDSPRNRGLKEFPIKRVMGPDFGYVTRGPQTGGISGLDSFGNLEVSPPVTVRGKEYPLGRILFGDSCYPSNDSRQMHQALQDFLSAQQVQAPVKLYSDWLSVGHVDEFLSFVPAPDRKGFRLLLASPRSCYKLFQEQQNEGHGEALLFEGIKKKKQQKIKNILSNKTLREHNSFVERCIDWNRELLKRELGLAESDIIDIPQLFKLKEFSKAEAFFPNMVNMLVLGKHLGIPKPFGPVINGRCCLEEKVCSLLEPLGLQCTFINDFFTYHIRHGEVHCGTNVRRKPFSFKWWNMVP

Structure (SMILES)	pIC50
N[C@@H]1CCCN(C(=O)c2cc3c4c(c2)nc(-c2cc5cc(/C=C/c6ccccc6)ccc5n2CC2CC2)n4CCO3)C1 [Example 58, (R,E)-(3-aminopiperidin-1-yl)(2-(1-(cyclopropylmethyl)-5-styryl-1H-indol-2-yl)-3,4-dihydro-5-oxa-1,2a-diazaacenaphthylen-7-yl)methanone]	5.00 to 6.00
Cc1csc(Cn2c(-c3nc4cc(C(=O)N5CCC[C@@H](N)C5)cc5c4n3CCO5)cc3ccccc32)n1 [Example 59, (R)-(3-aminopiperidin-1-yl)(2-(1-((4-methylthiazol-2-yl)methyl)-1H-indol-2-yl)-3,4-dihydro-5-oxa-1,2a-diazaacenaphthylen-7-yl)methanone]	≥ 6.00
N[C@@H]1CCCN(C(=O)c2cc3c4c(c2)nc(-c2cc5ccccc5n2CC2CC2)n4CCN3S(=O)(=O)C2CC2)C1 [Example 82, (R)-(3-aminopiperidin-1-yl)(2-(1-(cyclopropylmethyl)-1H-indol-2-yl)-6-(cyclopropylsulfonyl)-5,6-dihydro-4H-imidazo[1,5,4-de]quinoxalin-8-yl)methanone]	5.00 to 6.00
N[C@@H]1CCCN(C(=O)c2cc3c4c(c2)nc(-c2cc5ccccc5n2CC2CCNCC2)n4CCO3)C1 [Example 43, (R)-(3-aminopiperidin-1-yl)(2-(1-(piperidin-4-ylmethyl)-1H-indol-2-yl)-3,4-dihydro-5-oxa-1,2a-diazaacenaphthylen-7-yl)methanone]	≤ 5.00
CC(C)Cn1c(-c2nc3cc(C(=O)N4CCC[C@@H](N)C4)cc4c3n2CCO4)cc2ccccc21 [Example 31, (R)-(3-aminopiperidin-1-yl)(2-(1-isobutyl-1H-indol-2-yl)-3,4-dihydro-5-oxa-1,2a-diazaacenaphthylen-7-yl)methanone]	≥ 6.00
CC1(C)COc2cc(C(=O)N3CCC[C@@H](N)C3)cc3nc(-c4cc5ccccc5n4CC4CC4)n1c23 [Example 62, (R)-(3-aminopiperidin-1-yl)(2-(1-(cyclopropylmethyl)-1H-indol-2-yl)-3,3-dimethyl-3,4-dihydro-5-oxa-1,2a-diazaacenaphthylen-7-yl)methanone]	≤ 5.00
N[C@@H]1CCCN(C(=O)c2cc3c4c(c2)nc(-c2cc5c(F)cccc5n2CC2CC2)n4CCN3)C1 [Example 80, (R)-(3-aminopiperidin-1-yl)(2-(1-(cyclopropylmethyl)-4-fluoro-1H-indol-2-yl)-5,6-dihydro-4H-imidazo[1,5,4-de]quinoxalin-8-yl)methanone]	5.00 to 6.00
Cc1cccc2cc(-c3nc4cc(C(=O)N5CCC[C@@H](N)C5)cc5c4n3CCN5)n(CC3CC3)c12 [Example 84, (R)-(3-aminopiperidin-1-yl)(2-(1-(cyclopropylmethyl)-7-methyl-1H-indol-2-yl)-5,6-dihydro-4H-imidazo [1,5,4-de]quinoxalin-8-yl)methanone]	≥ 6.00
N[C@@H]1CCCN(C(=O)c2cc3c4c(c2)nc(-c2cc5ccc(F)cc5n2Cc2ncccc2F)n4CCO3)C1 [Example 35, (R)-(3-aminopiperidin-1-yl)(2-(6-fluoro-1-((3-fluoropyridin-2-yl)methyl)-1H-indol-2-yl)-3,4-dihydro-5-oxa-1,2a-diazaacenaphthylen-7-yl)methanone]	≥ 6.00
N[C@@H]1CCCN(C(=O)c2cc3c4c(c2)nc(-c2cc5ccccc5n2Cc2cncnc2)n4CCO3)C1 [Example 29, (R)-(3-aminopiperidin-1-yl)(2-(1-(pyrimidin-5-ylmethyl)-1H-indol-2-yl)-3,4-dihydro-5-oxa-1,2a-diazaacenaphthylen-7-yl)methanone]	5.00 to 6.00
CCn1c(-c2nc3cc(C(=O)N4CCC[C@@H](N)C4)cc4c3n2CCO4)cc2ccccc21 [Example 3, (R)-(3-aminopiperidin-1-yl)(2-(1-ethyl-1H-indol-2-yl)-3,4-dihydro-5-oxa-1,2a-diazaacenaphthylen-7-yl)methanone]	5.00 to 6.00
N[C@@H]1CCCN(C(=O)c2cc3c4c(c2)nc(-c2cc5ccccc5n2CC(=O)O)n4CCO3)C1 [Example 42, (R)-2-(2-(7-(3-aminopiperidine-1-carbonyl)-3,4-dihydro-5-ox 1,2a-diazaacenaphthylen-2-yl)-1H-indol-1-yl)acetic acid]	≤ 5.00
COc1ccc2c(c1)cc(-c1nc3cc(C(=O)N4CCC[C@@H](N)C4)cc4c3n1CCO4)n2CC1CC1 [Example 60, (R)-(3-aminopiperidin-1-yl)(2-(1-(cyclopropylmethyl)-5-methoxy-1H-indol-2-yl)-3,4-dihydro-5-oxa-1,2a-diazaacenaphthylen-7-yl)methanone]	≥ 6.00
COc1ccc(Cn2c(-c3nc4cc(C(=O)N5CCC[C@@H](N)C5)cc5c4n3CCO5)cc3cc(F)ccc32)cc1 [Example 46, (R)-(3-aminopiperidin-1-yl)(2-(5-fluoro-1-(4-methoxybenzyl)-1H-indol-2-yl)-3,4-dihydro-5-oxa-1,2a-diazaacenaphthylen-7-yl)methanone]	≥ 6.00
COCCn1c(-c2nc3cc(C(=O)N4CCC[C@@H](N)C4)cc4c3n2CCO4)cc2cccc(Cl)c21 [Example 36, (R)-(3-aminopiperidin-1-yl)(2-(7-chloro-1-(2-methoxyethyl)-1H-indol-2-yl)-3,4-dihydro-5-oxa-1,2a-diazaacenaphthylen-7-yl)methanone]	≥ 6.00
CCOCCS(=O)(=O)N1CCn2c(-c3cc4ccccc4n3CC3CC3)nc3cc(C(=O)N4CCC[C@@H](N)C4)cc1c32 [Example 83, (R)-(3-aminopiperidin-1-yl)(2-(1-(cyclopropylmethyl)-1H-indol-2-yl)-6-((2-ethoxyethyl)sulfonyl)-5,6-dihydro-4H-imidazo[1,5,4-de]quinoxalin-8-yl)methanone]	5.00 to 6.00
N[C@@H]1CCCN(C(=O)c2cc3c4c(c2)nc(-c2cc5ccc(F)c(Cl)c5n2CC2CC2)n4CCO3)C1 [Example 87, (R)-(3-aminopiperidin-1-yl)(2-(7-chloro-1-(cyclopropylmethyl)-6-fluoro-1H-indol-2-yl)-3,4-dihydro-5-oxa-1,2a-diazaacenaphthylen-7-yl)methanone]	≥ 6.00
N[C@@H]1CCCN(C(=O)c2cc3c4c(c2)nc(-c2cc5ccccc5n2CCO)n4CCO3)C1 [Example 22, (R)-(3-aminopiperidin-1-yl)(2-(1-(2-hydroxyethyl)-1H-indol-2-yl)-3,4-dihydro-5-oxa-1,2a-diazaacenaphthylen-7-yl)methanone]	≥ 6.00
COCCn1c(-c2nc3cc(C(=O)N4CCC[C@@H](N)C4)cc4c3n2CCO4)cc2cc(F)c(F)cc21 [Example 54, (R)-(3-aminopiperidin-1-yl)(2-(5,6-difluoro-1-(2-methoxyethyl)-1H-indol-2-yl)-3,4-dihydro-5-oxa-1,2a-diazaacenaphthylen-7-yl)methanone]	5.00 to 6.00
COc1ccc2cc(-c3nc4cc(C(=O)N5CCC[C@@H](N)C5)cc5c4n3CCO5)n(Cc3ccc(F)cc3)c2c1 [Example 51, (R)-(3-aminopiperidin-1-yl)(2-(1-(4-fluorobenzyl)-6-methoxy-1H-indol-2-yl)-3,4-dihydro-5-oxa-1,2a-diazaacenaphthylen-7-yl)methanone]	≥ 6.00
CN1CCC(Cn2c(-c3nc4cc(C(=O)N5CCC[C@@H](N)C5)cc5c4n3CCO5)cc3ccccc32)CC1 [Example 45, (R)-(3-aminopiperidin-1-yl)(2-(1-((l-methylpiperidin-4-yl)methyl)-1H-indol-2-yl)-3,4-dihydro-5-oxa-1,2a-diazaacenaphthylen-7-yl)methanone]	≤ 5.00
